From PubChem BioAssay (NCI)
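Cells were grown in 96-well plates and exposed to each compound for 48 hours at five concentrations; endpoints were interpolated linearly between bracketing concentrations, or set to the highest concentration if not reached. GI50: concentration for 50% inhibition of growth. TGI denotes the concentration required for complete inhibition of growth.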

Assays:
Test in all cases: NCI-60 cell line screen, 48 h
MALME-3M melanoma = tested on: MALME-3M melanoma
NCI-H226 lung = tested on: NCI-H226 lung
EKVX NSCLC = tested on: EKVX NSCLC
HOP-92 NSCLC = tested on: HOP-92 NSCLC
M14 melanoma = tested on: M14 melanoma
K-562 leukemia = tested on: K-562 leukemia
OVCAR-4 ovarian = tested on: OVCAR-4 ovarian
RXF 393 renal = tested on: RXF 393 renal
NCI-H460 lung = tested on: NCI-H460 lung
NCI/ADR-RES ovarian = tested on: NCI/ADR-RES ovarian
CCRF-CEM leukemia = tested on: CCRF-CEM leukemia
LOX IMVI melanoma = tested on: LOX IMVI melanoma
SF-539 CNS = tested on: SF-539 CNS
ACHN renal = tested on: ACHN renal
SK-MEL-2 melanoma = tested on: SK-MEL-2 melanoma
SK-OV-3 ovarian = tested on: SK-OV-3 ovarian
SF-295 CNS = tested on: SF-295 CNS
SR leukemia = tested on: SR leukemia
SNB-19 CNS = tested on: SNB-19 CNS
HS 578T breast = tested on: HS 578T breast
SW-620 colon = tested on: SW-620 colon
HOP-62 NSCLC = tested on: HOP-62 NSCLC
IGROV1 ovarian = tested on: IGROV1 ovarian
786-0 renal = tested on: 786-0 renal
UACC-62 melanoma = tested on: UACC-62 melanoma
UO-31 renal = tested on: UO-31 renal
RPMI-8226 leukemia = tested on: RPMI-8226 leukemia
HL-60(TB) leukemia = tested on: HL-60(TB) leukemia
HCT-15 colon = tested on: HCT-15 colon
A498 renal = tested on: A498 renal
TK-10 renal = tested on: TK-10 renal
HCT-116 colon = tested on: HCT-116 colon
MDA-MB-435 = tested on: MDA-MB-435
NCI-H522 lung = tested on: NCI-H522 lung
MDA-MB-231 breast = tested on: MDA-MB-231 breast
MCF7 breast = tested on: MCF7 breast
CAKI-1 renal = tested on: CAKI-1 renal
KM12 colon = tested on: KM12 colon
BT-549 breast = tested on: BT-549 breast
U251 CNS = tested on: U251 CNS
OVCAR-8 ovarian = tested on: OVCAR-8 ovarian
NCI-H23 lung = tested on: NCI-H23 lung
SK-MEL-28 melanoma = tested on: SK-MEL-28 melanoma
SNB-75 CNS = tested on: SNB-75 CNS
OVCAR-3 ovarian = tested on: OVCAR-3 ovarian
HT29 colon = tested on: HT29 colon
MOLT-4 leukemia = tested on: MOLT-4 leukemia
DU-145 prostate = tested on: DU-145 prostate
OVCAR-5 ovarian = tested on: OVCAR-5 ovarian
T-47D breast = tested on: T-47D breast
SK-MEL-5 melanoma = tested on: SK-MEL-5 melanoma
COLO 205 colon = tested on: COLO 205 colon
SN12C renal = tested on: SN12C renal
HCC-2998 colon = tested on: HCC-2998 colon
SF-268 CNS = tested on: SF-268 CNS
PC-3 prostate = tested on: PC-3 prostate
UACC-257 melanoma = tested on: UACC-257 melanoma
A549 NSCLC = tested on: A549 NSCLC

Cc1ccc(NC(=O)/C=C/c2ccccc2)c(C(N)=O)c1
GI50 (MALME-3M melanoma): 5.99 µM
TGI (MALME-3M melanoma): > 100 µM
GI50 (NCI-H226 lung): 6.46 µM
TGI (NCI-H226 lung): > 100 µM
GI50 (EKVX NSCLC): 4.78 µM
TGI (EKVX NSCLC): > 100 µM
GI50 (HOP-92 NSCLC): 15.5 µM
TGI (HOP-92 NSCLC): > 100 µM
GI50 (M14 melanoma): 2.12 µM
TGI (M14 melanoma): > 100 µM
GI50 (K-562 leukemia): 1.06 µM
TGI (K-562 leukemia): > 100 µM
GI50 (OVCAR-4 ovarian): 9.17 µM
TGI (OVCAR-4 ovarian): > 100 µM
GI50 (RXF 393 renal): 2.67 µM
TGI (RXF 393 renal): 8.16 µM
GI50 (NCI-H460 lung): 3.46 µM
TGI (NCI-H460 lung): 25.9 µM
GI50 (NCI/ADR-RES ovarian): 2.54 µM
TGI (NCI/ADR-RES ovarian): 18.2 µM
GI50 (CCRF-CEM leukemia): 2.33 µM
TGI (CCRF-CEM leukemia): > 29.2 µM
GI50 (LOX IMVI melanoma): 7.87 µM
TGI (LOX IMVI melanoma): > 100 µM
GI50 (SF-539 CNS): 2.07 µM
TGI (SF-539 CNS): 6.75 µM
GI50 (ACHN renal): 11 µM
TGI (ACHN renal): > 96.6 µM
GI50 (SK-MEL-2 melanoma): 4.75 µM
TGI (SK-MEL-2 melanoma): 31.6 µM
GI50 (SK-OV-3 ovarian): 3.26 µM
TGI (SK-OV-3 ovarian): 19.1 µM
GI50 (SF-295 CNS): 2.79 µM
TGI (SF-295 CNS): > 56.7 µM
GI50 (SR leukemia): 0.881 µM
TGI (SR leukemia): 20.1 µM
GI50 (SNB-19 CNS): 5.81 µM
TGI (SNB-19 CNS): > 100 µM
GI50 (HS 578T breast): 1.69 µM
TGI (HS 578T breast): 6.63 µM
GI50 (SW-620 colon): 2.5 µM
TGI (SW-620 colon): > 100 µM
GI50 (HOP-62 NSCLC): 11.1 µM
TGI (HOP-62 NSCLC): > 100 µM
GI50 (IGROV1 ovarian): 4.89 µM
TGI (IGROV1 ovarian): > 56.1 µM
GI50 (786-0 renal): 6.41 µM
TGI (786-0 renal): 53 µM
GI50 (UACC-62 melanoma): 3.44 µM
TGI (UACC-62 melanoma): > 80.8 µM
GI50 (UO-31 renal): 10.3 µM
TGI (UO-31 renal): > 60 µM
GI50 (RPMI-8226 leukemia): 2.89 µM
TGI (RPMI-8226 leukemia): > 100 µM
GI50 (HL-60(TB) leukemia): 1.75 µM
TGI (HL-60(TB) leukemia): 6.7 µM
GI50 (HCT-15 colon): 2.43 µM
TGI (HCT-15 colon): > 100 µM
GI50 (A498 renal): 3.61 µM
TGI (A498 renal): 34.6 µM
GI50 (TK-10 renal): 17.1 µM
TGI (TK-10 renal): > 100 µM
GI50 (HCT-116 colon): 2.96 µM
TGI (HCT-116 colon): > 76.8 µM
GI50 (MDA-MB-435): 0.526 µM
TGI (MDA-MB-435): 2.44 µM
GI50 (NCI-H522 lung): 1.89 µM
TGI (NCI-H522 lung): 9.06 µM
GI50 (MDA-MB-231 breast): 5.37 µM
TGI (MDA-MB-231 breast): > 95.7 µM
GI50 (MCF7 breast): 3.15 µM
TGI (MCF7 breast): > 100 µM
GI50 (CAKI-1 renal): 6.78 µM
TGI (CAKI-1 renal): > 59.4 µM
GI50 (KM12 colon): 2.44 µM
TGI (KM12 colon): 35.5 µM
GI50 (BT-549 breast): 12.5 µM
TGI (BT-549 breast): > 100 µM
GI50 (U251 CNS): 3.8 µM
TGI (U251 CNS): > 100 µM
GI50 (OVCAR-8 ovarian): 7.38 µM
TGI (OVCAR-8 ovarian): > 100 µM
GI50 (NCI-H23 lung): 4.46 µM
TGI (NCI-H23 lung): > 100 µM
GI50 (SK-MEL-28 melanoma): 3.65 µM
TGI (SK-MEL-28 melanoma): > 100 µM
GI50 (SNB-75 CNS): 2.62 µM
TGI (SNB-75 CNS): 15.1 µM
GI50 (OVCAR-3 ovarian): 2.28 µM
TGI (OVCAR-3 ovarian): 6.68 µM
GI50 (HT29 colon): 2.36 µM
TGI (HT29 colon): 30.8 µM
GI50 (MOLT-4 leukemia): 3.34 µM
TGI (MOLT-4 leukemia): > 74.1 µM
GI50 (DU-145 prostate): 3.81 µM
TGI (DU-145 prostate): > 41.9 µM
GI50 (OVCAR-5 ovarian): 9.68 µM
TGI (OVCAR-5 ovarian): > 100 µM
GI50 (T-47D breast): 5.11 µM
TGI (T-47D breast): > 74.4 µM
GI50 (SK-MEL-5 melanoma): 1.94 µM
TGI (SK-MEL-5 melanoma): > 41.5 µM
GI50 (COLO 205 colon): 1.68 µM
TGI (COLO 205 colon): 5.93 µM
GI50 (SN12C renal): 7.76 µM
TGI (SN12C renal): > 100 µM
GI50 (HCC-2998 colon): 5.38 µM
TGI (HCC-2998 colon): 42.5 µM
GI50 (SF-268 CNS): 7.19 µM
TGI (SF-268 CNS): > 100 µM
GI50 (PC-3 prostate): 4.07 µM
TGI (PC-3 prostate): > 100 µM
GI50 (UACC-257 melanoma): 22.5 µM
TGI (UACC-257 melanoma): > 95.3 µM
GI50 (A549 NSCLC): 5.28 µM
TGI (A549 NSCLC): > 100 µM
